From patent publication EP1683521A1, “Peptide deformylase inhibitors, their use, and pharmaceutical compositions containing the same” (CENTRE NATIONAL DE LA RECHERCHE SCIENTIFIQUE (CNRS), priority 2005, dated 2006)
In brackets after ≈: the same amount, converted by molar mass. Where two headings read alike, the source gives them in different places.

Experiments:
[1] = biological target: T1, EcPDF (Escherichia coli, UniProt P0A6K3); experiment: NMR titrations on peptide deformylase; type: binding; details: probed by NMR titrations
T1 construct: made in house

[2] = tested on: B. subtilis-168; experiment: B. subtilis MIC
[3] = tested on: B. subtilis-MHY101; experiment: B. subtilis MIC; details: Bacillus subtilis
[4] = biological target: T2, EcPDF1B (Escherichia coli, UniProt P0A6K3); experiment: PDF inhibition assay coupled to formate dehydrogenase (in vitro assay); type: biochemical
T2 construct: made in house

[5] = tested on: E. coli-CAG1284; experiment: E. coli MIC, tolC mutant strain; details: Escherichia coli
[6] = tested on: B. subtilis-MHD101; experiment: B. subtilis MIC; details: Bacillus subtilis
[7] = tested on: B. subtilis-M03482; experiment: B. subtilis MIC; details: Bacillus subtilis
[8] = biological target: T3, BsPDF2 (Geobacillus stearothermophilus, UniProt O31410); experiment: PDF inhibition assay coupled to formate dehydrogenase (in vitro assay); type: biochemical, Bacillus stearothermophilus
T3 construct: made in house

[9] = tested on: E. coli-JM101Tr; experiment: E. coli MIC, WT strain; details: Escherichia coli, WT strain JM101Tr
[10] = biological target: T4, AtPDF1A (Arabidopsis thaliana, UniProt Q9FV53); experiment: PDF inhibition assay coupled to formate dehydrogenase (in vitro assay); type: biochemical; details: mitochondrial PDF, 25 nM in assay; 10 % dimethyl sulfoxide; (TB) = tight binding
T4 construct: made in house

[11] = tested on: Arabidopsis thaliana (ecotype WS4); experiment: Growth inhibition of Arabidopsis thaliana; type: in vivo
[12] = WT context (strains 168 and MO3482)
[13] = nickel-bound enzyme, 40 nM in assay, 10 % dimethyl sulfoxide, (TB) = tight binding, read-out: IC50
[14] = nickel-bound enzyme, 20 nM in assay, 10 % dimethyl sulfoxide, (TB) = tight binding, read-out: IC50

T2 sequence (P0A6K3 whole entry): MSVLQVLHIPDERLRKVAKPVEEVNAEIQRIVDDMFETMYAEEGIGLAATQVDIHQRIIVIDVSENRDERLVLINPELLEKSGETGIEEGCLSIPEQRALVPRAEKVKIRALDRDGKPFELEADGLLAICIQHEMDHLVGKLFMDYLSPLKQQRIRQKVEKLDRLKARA
T3 sequence (O31410 whole entry): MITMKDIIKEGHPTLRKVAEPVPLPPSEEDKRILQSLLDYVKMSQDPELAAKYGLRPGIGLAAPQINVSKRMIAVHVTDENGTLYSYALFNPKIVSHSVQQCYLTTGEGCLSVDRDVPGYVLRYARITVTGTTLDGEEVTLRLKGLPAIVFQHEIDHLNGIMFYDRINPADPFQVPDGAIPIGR
T4 sequence (Q9FV53 61-269): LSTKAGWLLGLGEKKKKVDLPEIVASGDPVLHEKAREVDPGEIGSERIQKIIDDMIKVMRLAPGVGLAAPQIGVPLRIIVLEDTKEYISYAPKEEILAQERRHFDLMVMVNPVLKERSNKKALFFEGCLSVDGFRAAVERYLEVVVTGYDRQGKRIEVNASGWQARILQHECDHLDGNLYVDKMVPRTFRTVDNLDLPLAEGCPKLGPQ
T1 sequence (P0A6K3 1-148): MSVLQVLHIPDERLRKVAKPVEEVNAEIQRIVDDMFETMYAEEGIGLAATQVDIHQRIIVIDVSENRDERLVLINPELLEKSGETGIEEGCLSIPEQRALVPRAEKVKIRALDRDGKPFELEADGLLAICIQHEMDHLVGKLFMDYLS

Row | Structure (SMILES) | binding constant [1] | MIC ([2]; Bacillus subtilis) | MIC [2, 12] | MIC [3] | IC50 [4] | MIC [5] | MIC [6] | MIC [7] | IC50 [8] | MIC [9] | IC50 [10] | concentration at which growth inhibition is observed [11] | MIC ([2]; strain 168 (WT context)) | IC50 [4, 13] | IC50 [8, 14]
1 | Brc1ccc2[nH]ccc2c1 [5-bromoindole] | in the millimolar range | – | – | – | – | – | – | – | – | – | – | – | – | – | –
2 | CC(C)(C)OC(=O)NC(CC(=O)NO)Cc1ccccc1 (stereo not shown) [RAS270] | – | > 300 µg/mL | no antibiotic properties | 8 µg/mL (≈ 27.2 µM) | 44 nM | 32 µg/mL (≈ 109 µM) | > 300 µg/mL | > 300 µg/mL | 300 nM | > 300 µg/mL | 83000 nM | – | – | – | –
3 | O=C(Cc1cn(C(=O)OCc2ccccc2)c2ccc(Br)cc12)NO [Compound 2, 5-bromo-3-hydroxycarbamoylmethyl-indole-1-carboxylic acid benzyl ester] | – | 20 µg/mL (≈ 49.6 µM) | – | 6 µg/mL (≈ 14.9 µM) | – | – | 12 µg/mL (≈ 29.8 µM) | 16 µg/mL (≈ 39.7 µM) | – | – | 14000 nM | higher than 50 µM | 20 µg/mL (≈ 49.6 µM) | 26 nM | < 27 nM
4 | CC(C)(C)OC(=O)NC(Cc1ccccc1)CN(O)C=O (stereo not shown) [RAS358] | – | > 300 µg/mL | no antibiotic properties | 9 µg/mL (≈ 30.6 µM) | – | – | > 300 µg/mL | > 300 µg/mL | – | – | 150000 nM | – | – | 50 nM | 400 nM
